Test results reported in patent publication US20250186405A1, “Compound For Use In Treating Narcolepsy” (Alkermes, Inc., priority 2023, published 2025).

System: subjects with idiopathic hypersomnia (IH)
Assay: Part 6 POC IH: treatment-emergent adverse events, single doses, crossover
[1] = Total (any Compound A dose), N = 8

Experimental: Part 6 consisted of a 4-way, 4-period crossover study design in approximately 8 subjects (2 subjects per sequence; minimum of 4 subjects with 1 subject per sequence). […] Treatments were administered under fasted state.
Subjects were randomized to 1 of 4 sequences. […] No food was given for at least 3 hours after dose administration (i.e., fast can be broken after the 3-hour PK time point is collected). Water was allowed ad libitum except for 1 hour before and 1 hour after study drug administration. Safety assessments including AEs, safety ECGs, vital signs, and clinical laboratory tests were conducted, and plasma PK samples were collected.
Adverse events (AEs) and serious adverse events (SAEs) were monitored continuously until the completion of the study.
Eight subjects with IH were dosed in Part 6 (POC in IH) in a randomized 4-sequence 4-period cross-over design.

Question: How did the “Any SAEs” value (25 mg single dose, N = 8) turn out when `CS(=O)(=O)N[C@H]1CCCN2C(=O)COc3ccccc3C3CCC(CC3)OCC12` (stereo partly drawn) [Compound A, N-[(4S,4aR,7α,10α)-1,2,3,4,4a,5,7,8,9,10,16,17-dodecahydro-17-oxo-7,10-ethanopyrido[1,2-d][1,7,4]benzodioxaazacyclotridecin-4-yl]methanesulfonamide] was run?
Answer: 0 n (%)

Question: And the “Any TEAE” value (25 mg single dose, N = 8)?
Answer: 7 (87.5) n (%)

Question: What about the Death (25 mg single dose, N = 8) of the same compound?
Answer: 0 n (%)

Question: And the “Drug Related TEAE by Preferred Term: Cold sweat” value (25 mg single dose, N = 8)?
Answer: 1 (12.5) n (%)

Question: And the “Drug Related TEAE by Preferred Term: Dizziness” value (25 mg single dose, N = 8)?
Answer: 2 (25.0) n (%)

Question: What about the “Drug Related TEAE by Preferred Term: Dysuria” value (25 mg single dose, N = 8) of the same compound?
Answer: 1 (12.5) n (%)

Question: And the “Drug Related TEAE by Preferred Term: Feeling jittery” value (25 mg single dose, N = 8)?
Answer: 1 (12.5) n (%)

Question: And the “Drug Related TEAE by Preferred Term: Insomnia” value (25 mg single dose, N = 8)?
Answer: 2 (25.0) n (%)

Question: What about the “Drug Related TEAE by Preferred Term: Micturition urgency” value (25 mg single dose, N = 8) of the same compound?
Answer: 1 (12.5) n (%)

Question: What about the “Drug Related TEAE by Preferred Term: Middle insomnia” value (25 mg single dose, N = 8) of the same compound?
Answer: 1 (12.5) n (%)

Question: What about the “Drug Related TEAE by Preferred Term: Palpitations” value (25 mg single dose, N = 8) of the same compound?
Answer: 1 (12.5) n (%)

Question: What about the “Drug Related TEAE by Preferred Term: Pollakiuria” value (25 mg single dose, N = 8) of the same compound?
Answer: 4 (50.0) n (%)

Question: And the “Drug Related TEAE by Preferred Term: Supraventricular extrasystoles” value (25 mg single dose, N = 8)?
Answer: 1 (12.5) n (%)

Question: And the “Drug Related TEAE by Preferred Term: Tachycardia” value (25 mg single dose, N = 8)?
Answer: 1 (12.5) n (%)

Question: And the “Drug Related TEAE by Preferred Term: Visual impairment” value (25 mg single dose, N = 8)?
Answer: 1 (12.5) n (%)

Question: And the “Subjects with at least one TEAE” value (25 mg single dose, N = 8)?
Answer: 7 (87.5) n (%)

Question: What about the “Subjects with at least one treatment-related TEAE” value (25 mg single dose, N = 8) of the same compound?
Answer: 7 (87.5) n (%)

Question: And the “TEAE by Highest Relationship: Not Related” value (25 mg single dose, N = 8)?
Answer: 0 n (%)

Question: What about the “TEAE by Highest Relationship: Related” value (25 mg single dose, N = 8) of the same compound?
Answer: 7 (87.5) n (%)

Question: And the “TEAE by Highest Severity: Mild” value (25 mg single dose, N = 8)?
Answer: 6 (75.0) n (%)

Question: And the “TEAE by Highest Severity: Moderate” value (25 mg single dose, N = 8)?
Answer: 1 (12.5) n (%)

Question: What about the “TEAE by Highest Severity: Severe” value (25 mg single dose, N = 8) of the same compound?
Answer: 0 n (%)

Question: And the “TEAE by Preferred Term: Blood creatine phosphokinase increased” value (25 mg single dose, N = 8)?
Answer: 0 n (%)

Question: What about the “TEAE by Preferred Term: Blood creatinine increased” value (25 mg single dose, N = 8) of the same compound?
Answer: 0 n (%)

Question: What about the “TEAE by Preferred Term: Cold sweat” value (25 mg single dose, N = 8) of the same compound?
Answer: 1 (12.5) n (%)

Question: What about the “TEAE by Preferred Term: Dermatitis contact” value (25 mg single dose, N = 8) of the same compound?
Answer: 0 n (%)

Question: What about the “TEAE by Preferred Term: Dizziness” value (25 mg single dose, N = 8) of the same compound?
Answer: 2 (25.0) n (%)

Question: What about the “TEAE by Preferred Term: Dysuria” value (25 mg single dose, N = 8) of the same compound?
Answer: 1 (12.5) n (%)

Question: What about the “TEAE by Preferred Term: Epistaxis” value (25 mg single dose, N = 8) of the same compound?
Answer: 1 (12.5) n (%)

Question: And the “TEAE by Preferred Term: Feeling jittery” value (25 mg single dose, N = 8)?
Answer: 1 (12.5) n (%)

Question: And the “TEAE by Preferred Term: Headache” value (25 mg single dose, N = 8)?
Answer: 1 (12.5) n (%)

Question: And the “TEAE by Preferred Term: Insomnia” value (25 mg single dose, N = 8)?
Answer: 2 (25.0) n (%)

Question: And the “TEAE by Preferred Term: Micturition urgency” value (25 mg single dose, N = 8)?
Answer: 1 (12.5) n (%)

Question: What about the “TEAE by Preferred Term: Middle insomnia” value (25 mg single dose, N = 8) of the same compound?
Answer: 1 (12.5) n (%)

Question: And the “TEAE by Preferred Term: Nausea” value (25 mg single dose, N = 8)?
Answer: 0 n (%)

Question: And the “TEAE by Preferred Term: Neck pain” value (25 mg single dose, N = 8)?
Answer: 0 n (%)

Question: What about the “TEAE by Preferred Term: Palpitations” value (25 mg single dose, N = 8) of the same compound?
Answer: 1 (12.5) n (%)

Question: And the “TEAE by Preferred Term: Phlebitis” value (25 mg single dose, N = 8)?
Answer: 0 n (%)

Question: What about the “TEAE by Preferred Term: Pollakiuria” value (25 mg single dose, N = 8) of the same compound?
Answer: 4 (50.0) n (%)

Question: And the “TEAE by Preferred Term: Presyncope” value (25 mg single dose, N = 8)?
Answer: 0 n (%)

Question: What about the “TEAE by Preferred Term: Skin irritation” value (25 mg single dose, N = 8) of the same compound?
Answer: 0 n (%)

Question: What about the “TEAE by Preferred Term: Steatorrhoea” value (25 mg single dose, N = 8) of the same compound?
Answer: 0 n (%)

Question: What about the “TEAE by Preferred Term: Supraventricular extrasystoles” value (25 mg single dose, N = 8) of the same compound?
Answer: 1 (12.5) n (%)

Question: And the “TEAE by Preferred Term: Tachycardia” value (25 mg single dose, N = 8)?
Answer: 1 (12.5) n (%)

Question: What about the “TEAE by Preferred Term: Urinary tract infection” value (25 mg single dose, N = 8) of the same compound?
Answer: 0 n (%)

Question: And the “TEAE by Preferred Term: Vessel puncture site bruise” value (25 mg single dose, N = 8)?
Answer: 0 n (%)

Question: And the “TEAE by Preferred Term: Vessel puncture site pain” value (25 mg single dose, N = 8)?
Answer: 1 (12.5) n (%)

Question: What about the “TEAE by Preferred Term: Visual impairment” value (25 mg single dose, N = 8) of the same compound?
Answer: 1 (12.5) n (%)

Question: And the “TEAE by Preferred Term: Vomiting” value (25 mg single dose, N = 8)?
Answer: 0 n (%)

Question: And the Tolerability (IH, 5, 12 and 25 mg)?
Answer: well tolerated

Question: And the “Subjects with at least one TEAE” value (IH, N = 8, all periods)?
Answer: 100%

Question: And the “AE Leading to Study Drug Discontinuation” value [1]?
Answer: 0 n (%)

Question: What about the “Any SAEs” value [1] of the same compound?
Answer: 0 n (%)

Question: What about the “Any TEAE” value [1] of the same compound?
Answer: 8 n (%)

Question: What about the Death [1] of the same compound?
Answer: 0 n (%)

Question: What about the “Drug Related TEAE by Preferred Term: Cold sweat” value [1] of the same compound?
Answer: 1 (12.5) n (%)

Question: What about the “Drug Related TEAE by Preferred Term: Dizziness” value [1] of the same compound?
Answer: 2 (25.0) n (%)

Question: What about the “Drug Related TEAE by Preferred Term: Dysuria” value [1] of the same compound?
Answer: 1 (12.5) n (%)

Question: What about the “Drug Related TEAE by Preferred Term: Feeling jittery” value [1] of the same compound?
Answer: 1 (12.5) n (%)

Question: And the “Drug Related TEAE by Preferred Term: Insomnia” value [1]?
Answer: 2 (25.0) n (%)

Question: What about the “Drug Related TEAE by Preferred Term: Micturition urgency” value [1] of the same compound?
Answer: 1 (12.5) n (%)

Question: And the “Drug Related TEAE by Preferred Term: Middle insomnia” value [1]?
Answer: 2 (25.0) n (%)

Question: And the “Drug Related TEAE by Preferred Term: Palpitations” value [1]?
Answer: 1 (12.5) n (%)

Question: What about the “Drug Related TEAE by Preferred Term: Pollakiuria” value [1] of the same compound?
Answer: 5 (62.5) n (%)

Question: And the “Drug Related TEAE by Preferred Term: Supraventricular extrasystoles” value [1]?
Answer: 1 (12.5) n (%)

Question: And the “Drug Related TEAE by Preferred Term: Tachycardia” value [1]?
Answer: 1 (12.5) n (%)

Question: And the “Drug Related TEAE by Preferred Term: Visual impairment” value [1]?
Answer: 1 (12.5) n (%)

Question: And the “Subjects with at least one TEAE” value [1]?
Answer: 8 n (%)

Question: And the “Subjects with at least one treatment-related TEAE” value [1]?
Answer: 8 (100) n (%)

Question: What about the “TEAE by Highest Relationship: Not Related” value [1] of the same compound?
Answer: 0 n (%)

Question: What about the “TEAE by Highest Relationship: Related” value [1] of the same compound?
Answer: 8 n (%)

Question: What about the “TEAE by Highest Severity: Mild” value [1] of the same compound?
Answer: 7 n (%)

Question: What about the “TEAE by Highest Severity: Moderate” value [1] of the same compound?
Answer: 1 n (%)

Question: And the “TEAE by Highest Severity: Severe” value [1]?
Answer: 0 n (%)

Question: And the “TEAE by Preferred Term: Blood creatine phosphokinase increased” value [1]?
Answer: 1 n (%)

Question: And the “TEAE by Preferred Term: Blood creatinine increased” value [1]?
Answer: 1 n (%)

Question: And the “TEAE by Preferred Term: Cold sweat” value [1]?
Answer: 1 n (%)

Question: And the “TEAE by Preferred Term: Dermatitis contact” value [1]?
Answer: 0 n (%)

Question: What about the “TEAE by Preferred Term: Dizziness” value [1] of the same compound?
Answer: 4 n (%)

Question: And the “TEAE by Preferred Term: Dysuria” value [1]?
Answer: 1 n (%)

Question: What about the “TEAE by Preferred Term: Epistaxis” value [1] of the same compound?
Answer: 1 n (%)

Question: What about the “TEAE by Preferred Term: Feeling jittery” value [1] of the same compound?
Answer: 1 n (%)

Question: What about the “TEAE by Preferred Term: Headache” value [1] of the same compound?
Answer: 3 n (%)

Question: And the “TEAE by Preferred Term: Insomnia” value [1]?
Answer: 2 n (%)

Question: And the “TEAE by Preferred Term: Micturition urgency” value [1]?
Answer: 1 n (%)

Question: What about the “TEAE by Preferred Term: Middle insomnia” value [1] of the same compound?
Answer: 2 n (%)

Question: What about the “TEAE by Preferred Term: Nausea” value [1] of the same compound?
Answer: 1 n (%)

Question: What about the “TEAE by Preferred Term: Neck pain” value [1] of the same compound?
Answer: 1 n (%)

Question: What about the “TEAE by Preferred Term: Palpitations” value [1] of the same compound?
Answer: 1 n (%)

Question: What about the “TEAE by Preferred Term: Phlebitis” value [1] of the same compound?
Answer: 1 n (%)

Question: What about the “TEAE by Preferred Term: Pollakiuria” value [1] of the same compound?
Answer: 5 n (%)

Question: And the “TEAE by Preferred Term: Presyncope” value [1]?
Answer: 1 n (%)

Question: And the “TEAE by Preferred Term: Skin irritation” value [1]?
Answer: 1 n (%)

Question: And the “TEAE by Preferred Term: Steatorrhoea” value [1]?
Answer: 1 n (%)

Question: And the “TEAE by Preferred Term: Supraventricular extrasystoles” value [1]?
Answer: 1 n (%)

Question: What about the “TEAE by Preferred Term: Tachycardia” value [1] of the same compound?
Answer: 1 n (%)

Question: And the “TEAE by Preferred Term: Urinary tract infection” value [1]?
Answer: 1 n (%)

Question: What about the “TEAE by Preferred Term: Vessel puncture site bruise” value [1] of the same compound?
Answer: 2 n (%)

Question: What about the “TEAE by Preferred Term: Vessel puncture site pain” value [1] of the same compound?
Answer: 1 n (%)

Question: And the “TEAE by Preferred Term: Visual impairment” value [1]?
Answer: 1 n (%)

Question: And the “TEAE by Preferred Term: Vomiting” value [1]?
Answer: 0 n (%)
